Measurements: ChEMBL document CHEMBL4813944 (Eur J Med Chem, 2021)
Activity calls are given as the source filed them. The rule behind the calls is not given here.

Legend:
[1] = Cytotoxicity against human SH-SY5Y cells assessed as cell viability at 0.1 uM measured after 24 hrs by calcein-AM staining based fluorescence analysis; conditions: read-out: Activity
[2] = Cytotoxicity against human SH-SY5Y cells assessed as cell viability at 1 uM measured after 24 hrs by calcein-AM staining based fluorescence analysis; conditions: read-out: Activity
[3] = Cytotoxicity against human SH-SY5Y cells assessed as cell viability at 10 uM measured after 24 hrs by calcein-AM staining based fluorescence analysis; conditions: read-out: Activity
SH-SY5Y [4] = assay: Neuroprotective activity against salsolinol-induced neurotoxicity in human SH-SY5Y cells assessed as cell viability at 1 uM measured after 24 hrs by calcein-AM staining based fluorescence analysis (reference value: 70.49 +/-0.51%); type: functional; conditions: read-out: Activity
SH-SY5Y [5] = assay: Neuroprotective activity against salsolinol-induced neurotoxicity in human SH-SY5Y cells assessed as cell viability at 0.1 uM measured after 24 hrs by calcein-AM staining based fluorescence analysis (reference value: 70.49 +/-0.51%); type: functional; conditions: read-out: Activity
SH-SY5Y [6] = assay: Neuroprotective activity against salsolinol-induced neurotoxicity in human SH-SY5Y cells assessed as cell death at 0.1 uM measured after 24 hrs by PI staining based analysis (reference value: 100%); type: functional
SH-SY5Y [7] = assay: Neuroprotective activity against salsolinol-induced neurotoxicity in human SH-SY5Y cells assessed as cell death at 1 uM measured after 24 hrs by PI staining based analysis (reference value: 100%); type: functional
SH-SY5Y [8] = assay: Inhibition of Salsolinol-induced oxidative stress in human SH-SY5Y cells assessed as superoxide radical formation at 1 uM measured after 24 hrs by DHE staining based fluorescence spectrophotometry (reference value: 100%); type: functional; set-up: scale not given: the % may be the effect or the level left
SH-SY5Y [9] = assay: Inhibition of salsolinol-induced apoptosis in human SH-SY5Y cells assessed as caspase 3/7 activity at 1 uM incubated for 24 hrs using Ac-DEVD-AMC as substrate by fluorescence analysis (reference value: 100%); type: functional; set-up: scale not given: the % may be the effect or the level left
SH-SY5Y [10] = assay: Inhibition of salsolinol-induced apoptosis in human SH-SY5Y cells assessed as caspase 3/7 activity at 0.1 uM incubated for 24 hrs using Ac-DEVD-AMC as substrate by fluorescence analysis (reference value: 100%); type: functional; set-up: scale not given: the % may be the effect or the level left
SH-SY5Y [11] = assay: Inhibition of salsolinol-induced mitochondrial depolarization in human SH-SY5Y cells assessed as mitochondrial membrane potential at 10 uM measured after 24 hrs by JC-1 staining based flow cytometry (reference value: 45.3 +/-2.09%); type: functional
SH-SY5Y [12] = assay: Inhibition of salsolinol-induced mitochondrial depolarization in human SH-SY5Y cells assessed as recovery of mitochondrial membrane potential at 0.1 uM measured after 24 hrs by JC-1 staining based flow cytometry; type: functional, cell-based
[13] = Inhibition of salsolinol-induced mPTP opening in human SH-SY5Y cells assessed as fold change in fluorescence intensity at 1 uM measured after 24 hrs by calcein AM/CoCl2 based fluorescence microscopic analysis (reference value: 0.49 +/-0.02); type: functional
SH-SY5Y [14] = assay: Inhibition of salsolinol-induced apoptosis in human SH-SY5Y cells assessed as appearance of necrotic cells at 1 uM measured after 24 hrs by AO/PIstaining based fluorescence microscopy; type: functional, cell-based
SH-SY5Y [15] = assay: Neuroprotective activity against glutamate-induced neurotoxicity in human SH-SY5Y cells assessed as cell death at 1 uM measured after 24 hrs by PI staining based assay (reference value: 100%); type: functional
SH-SY5Y [16] = assay: Inhibition of glutamate-induced oxidative stress in human SH-SY5Y cells assessed as superoxide radical formation at 1 uM measured after 4 hrs by DHE staining based fluorescence spectrophotometry (reference value: 100%); type: functional; set-up: scale not given: the % may be the effect or the level left
SH-SY5Y [17] = assay: Inhibition of glutamate-induced apoptosis in human SH-SY5Y cells assessed as reduction in caspase 3/7 activity at 0.1 to 1 uM incubated for 1 hr using Ac-DEVD-AMC as substrate by fluorescence analysis; type: functional; conditions: dose 0.1-1 µM
SH-SY5Y [18] = assay: Inhibition of glutamate-induced mitochondrial depolarization in human SH-SY5Y cells assessed as recovery of mitochondrial membrane potential at 0.1 to 1 uM incubated for 1 hr by JC10 dye based fluorescence analysis; type: functional, cell-based; conditions: dose 0.1-1 µM
SH-SY5Y [19] = assay: Inhibition of Salsolinol-induced oxidative stress in human SH-SY5Y cells assessed as superoxide radical formation at 0.1 uM measured after 24 hrs by DHE staining based fluorescence spectrophotometry (reference value: 100%); type: functional; set-up: scale not given: the % may be the effect or the level left
SH-SY5Y [20] = assay: Inhibition of Salsolinol-induced oxidative stress in human SH-SY5Y cells assessed as reduction in superoxide radical formation at 1 uM measured after 24 hrs by DHE staining based fluorescence microscopy; type: functional, cell-based
SH-SY5Y [21] = assay: Inhibition of glutamate-induced oxidative stress in human SH-SY5Y cells assessed as superoxide radical formation at 0.1 uM measured after 4 hrs by DHE staining based fluorescence spectrophotometry (reference value: 100%); type: functional; set-up: scale not given: the % may be the effect or the level left
SH-SY5Y [22] = assay: Inhibition of glutamate-induced oxidative stress in human SH-SY5Y cells assessed as reduction in superoxide radical formation at 1 uM measured after 4 hrs by DHE staining based fluorescence microscopy; type: functional, cell-based
SH-SY5Y [23] = assay: Neuroprotective activity against salsolinol-induced neurotoxicity in human SH-SY5Y cells assessed as cell viability at 100 uM measured after 24 hrs by calcein-AM staining based fluorescence analysis (reference value: 70.49 +/-0.51%); type: functional; conditions: read-out: Activity
SH-SY5Y [24] = assay: Neuroprotective activity against salsolinol-induced neurotoxicity in human SH-SY5Y cells assessed as cell viability at 1000 uM measured after 24 hrs by calcein-AM staining based fluorescence analysis (reference value: 70.49 +/-0.51%); type: functional; conditions: read-out: Activity
SH-SY5Y [25] = assay: Neuroprotective activity against salsolinol-induced neurotoxicity in human SH-SY5Y cells assessed as cell death at 100 uM measured after 24 hrs by PI staining based analysis (reference value: 100%); type: functional
SH-SY5Y [26] = assay: Neuroprotective activity against salsolinol-induced neurotoxicity in human SH-SY5Y cells assessed as cell death at 1000 uM measured after 24 hrs by PI staining based analysis (reference value: 100%); type: functional
SH-SY5Y [27] = assay: Inhibition of Salsolinol-induced oxidative stress in human SH-SY5Y cells assessed as superoxide radical formation at 1000 uM measured after 24 hrs by DHE staining based fluorescence spectrophotometry (reference value: 100%); type: functional; set-up: scale not given: the % may be the effect or the level left
[28] = Cytotoxicity against human SH-SY5Y cells assessed as cell viability at 100 uM measured after 24 hrs by calcein-AM staining based fluorescence analysis; conditions: read-out: Activity
[29] = Cytotoxicity against human SH-SY5Y cells assessed as cell viability at 1000 uM measured after 24 hrs by calcein-AM staining based fluorescence analysis; conditions: read-out: Activity
SH-SY5Y [30] = assay: Inhibition of Salsolinol-induced oxidative stress in human SH-SY5Y cells assessed as reduction in superoxide radical formation measured after 24 hrs by DHE staining based fluorescence spectrophotometry; type: functional, cell-based; conditions: dose 10-1000 µM
SH-SY5Y [31] = assay: Inhibition of Salsolinol-induced oxidative stress in human SH-SY5Y cells assessed as reduction in superoxide radical formation at 1000 uM measured after 24 hrs by DHE staining based fluorescence microscopy; type: functional, cell-based
SH-SY5Y [32] = assay: Inhibition of salsolinol-induced apoptosis in human SH-SY5Y cells assessed as caspase 3/7 activity at 1000 uM incubated for 24 hrs using Ac-DEVD-AMC as substrate by fluorescence analysis (reference value: 100%); type: functional; set-up: scale not given: the % may be the effect or the level left
[33] = Inhibition of salsolinol-induced mitochondrial depolarization in human SH-SY5Y cells assessed as mitochondrial membrane potential at 100 uM measured after 24 hrs by JC-1 staining based flow cytometry (reference value: 45.3 +/-2.09%); type: functional; set-up: scale not given: the % may be the effect or the level left
[34] = Inhibition of salsolinol-induced mitochondrial depolarization in human SH-SY5Y cells assessed as mitochondrial membrane potential at 1000 uM measured after 24 hrs by JC-1 staining based flow cytometry (reference value: 45.3 +/-2.09%); type: functional; set-up: scale not given: the % may be the effect or the level left
[35] = Inhibition of salsolinol-induced mPTP opening in human SH-SY5Y cells assessed as fold change in fluorescence intensity at 1000 uM measured after 24 hrs by calcein AM/CoCl2 based fluorescence microscopic analysis (reference value: 0.49 +/-0.02); type: functional
SH-SY5Y [36] = assay: Inhibition of salsolinol-induced apoptosis in human SH-SY5Y cells assessed as appearance of necrotic cells along with early and late apoptotic cells at 1000 uM measured after 24 hrs by AO/PIstaining based fluorescence microscopy; type: functional, cell-based
SH-SY5Y [37] = assay: Inhibition of salsolinol-induced apoptosis in human SH-SY5Y cells assessed as caspase 3/7 activity at 0.5 uM incubated for 24 hrs using Ac-DEVD-AMC as substrate by fluorescence analysis (reference value: 100%); type: functional; set-up: scale not given: the % may be the effect or the level left
SH-SY5Y [38] = assay: Inhibition of salsolinol-induced apoptosis in human SH-SY5Y cells assessed as caspase 3/7 activity at 0.05 uM incubated for 24 hrs using Ac-DEVD-AMC as substrate by fluorescence analysis (reference value: 100%); type: functional; set-up: scale not given: the % may be the effect or the level left
SH-SY5Y [39] = assay: Inhibition of glutamate-induced apoptosis in human SH-SY5Y cells assessed as caspase 3/7 activity at 0.05 uM incubated for 1 hr using Ac-DEVD-AMC as substrate by fluorescence analysis (reference value: 100%); type: functional; set-up: scale not given: the % may be the effect or the level left
SH-SY5Y [40] = assay: Inhibition of glutamate-induced apoptosis in human SH-SY5Y cells assessed as caspase 3/7 activity at 0.5 uM incubated for 1 hr using Ac-DEVD-AMC as substrate by fluorescence analysis (reference value: 100%); type: functional; set-up: scale not given: the % may be the effect or the level left

## C=C(C(=O)OCc1c[nH]nn1)[C@@H]1CC[C@]2(COC(C)=O)CC[C@]3(C)[C@H](CC[C@@H]4[C@@]5(C)CC[C@H](OC(C)=O)C(C)(C)[C@@H]5CC[C@]43C)[C@@H]12
[1]
  viability at 24 h, 0.1 µM: 97.4%
[2]
  viability at 24 h, 1 µM: 119%
[3]
  viability at 24 h, 10 µM: 30.5%
SH-SY5Y [4]
  viability at 1 µM: 97.9%
SH-SY5Y [5]
  viability at 0.1 µM: 81.4%
SH-SY5Y [6]
  Activity: 62.3%
SH-SY5Y [7]
  Activity: 59.3%
SH-SY5Y [8]
  Activity: 81%
SH-SY5Y [9]
  Activity: 24.3%
SH-SY5Y [10]
  Activity: 42.2%
SH-SY5Y [11]
  Activity: inactive
SH-SY5Y [12]
  Activity: Active
[13]
  fold change (FC): 1.14
SH-SY5Y [14]
  Activity: Active
SH-SY5Y [15]
  Activity: 85%
SH-SY5Y [16]
  Activity: 72.2%
SH-SY5Y [17]
  inhibition (INH): 6%
SH-SY5Y [18]
  Activity: inactive
SH-SY5Y [19]
  Activity: 83.7%
SH-SY5Y [20]
  inhibition: Active
SH-SY5Y [21]
  Activity: 75.7%
SH-SY5Y [22]
  inhibition: Active

## CC(=O)N[C@@H](CS)C(=O)O [ACETYLCYSTEINE]
[3]
  viability at 24 h, 10 µM: 108%
SH-SY5Y [23]
  viability at 100 µM: 82.3%
SH-SY5Y [24]
  viability at 1000 µM: 89%
SH-SY5Y [25]
  Activity: 72.5%
SH-SY5Y [26]
  Activity: 68.2%
SH-SY5Y [27]
  Activity: 53.8%
[28]
  viability at 24 h, 100 µM: 114%
[29]
  viability at 24 h, 1000 µM: 120%
SH-SY5Y [30]
  inhibition: Dose-Dependent Effect
SH-SY5Y [31]
  inhibition: Active
SH-SY5Y [32]
  Activity: 79.3%
[33]
  Activity: 66.4%
[34]
  Activity: 69.7%
[35]
  fold change (FC): 0.76
SH-SY5Y [36]
  Activity: Active

## CC(=O)N[C@@H](CC(=O)O)C(=O)N[C@@H](CCC(=O)O)C(=O)N[C@H](C(=O)N[C@@H](CC(=O)O)C(=O)O)C(C)C
SH-SY5Y [37]
  Activity: 30.8%
SH-SY5Y [38]
  Activity: 36.9%
SH-SY5Y [39]
  Activity: 27.8%
SH-SY5Y [40]
  Activity: 13.7%
